Test results taken from PMC9064813, “Interaction of the synthetic antithrombotic peptide P10 with thrombin: a spectroscopy study” (RSC Advances, 2019).
pIC50: −log10 of the molar value. Where no end group is shown, it is not given here.

Assays:
[1] = tested on: thrombin; conditions: cited from earlier work; for inhibition of thrombin activity: at a concentration of 0.4 mg mL^−1, purified from Alcalase 2.4L hydrolysate of peanut protein
Excerpt: In addition, three peptides SWAQL, GNHEAGE and CFNEYE were purified from the A ...

[2] = biological target: T1, thrombin (Bos taurus, UniProt P00735); assay: in vitro antithrombotic activity (thrombin-induced fibrinogen clotting, absorbance at 405 nm); type: biochemical, Bovine
T1 construct: thrombin consists of a 36-residue light chain and a 259-residue heavy chain; purchased Sigma-Aldrich Co. (St. Louis, MO, USA)
Protocol: Antithrombotic activity was determined according to the method of Yang et al.[53] The samples of thrombin and fibrinogen were dissolved in 0.05 M pH 7.4 Tris–HCl buffer, respectively. The determination was carried out using the IMark plate reader (Uji-shi, Kyoto, Japan) at 405 nm. 140 μL of 1 mg mL^−1 fibrinogen and 40 μL of the sample were added to the microplate, then mixed and the absorbance was recorded as Sb. After, 10 μL of thrombin (12 IU mL^−1) was added to the mixture which was maintained at 37 °C for 10 min, and the absorbance was recorded as S. 40 μL of buffer instead of the sample was used for control group, and the absorbances were Cb and C, respectively. The antithrombotic activity was calculated from eqn (5) as follows:5 [drawing 4]

[3] = biological target: T1, thrombin; assay: fluorescence quenching of thrombin by P10 (Stern-Volmer, binding constant, thermodynamics); set-up: species or system Bovine; conditions: 310 K, log (F0 − F)/F against log [Q]
Excerpt: The Stern–Volmer plot at 290 K and 310 K was plotted to determine the quenching mechanism (static quenching or dynamic quenching), as shown in Fig. 2B. F0 and F represented the fluorescence intensity of thrombin in the absence and presence of P10, respectively. And [Q] represented the concentration of the quencher. In general, the stability and quenching constants of the compounds formed under the static quenching mechanism decrease with increasing temperature. The interaction under dynamic quenching increases the number of effective collisions and enhances energy transfer, thus increasing the quenching constant of the fluorescent material as the temperature increases.[26,30]
To confirm this conclusion, the fluorescence quenching data was further analyzed by the Stern–Volmer eqn (1).[31] Where Ksv represented the quenching constant of the Stern–Volmer.1 [drawing 1]
The binding constant (Kb) and the number of binding sites (n) can be obtained from eqn (2) when small molecules are independently bound to a set of equivalent sites on the macromolecule:[33]2 [drawing 2] […]
The fluorescence spectra were recorded on the Hitachi F-4500 fluorescence spectrophotometer (Hitachi, Japan). […] The fluorescence emission spectrum of the mixture from 290 nm to 420 nm was scanned, and the excitation wavelength was set to 280 nm. […]

CFNEYE [peptide purified from the Alcalase 2.4L hydrolysate of peanut protein]
inhibition of thrombin activity [1]: complete inhibition

KNAENELGEVTVR
antithrombotic activity ([1]; at a concentration of 1 mg mL^−1): 67.21%

AGFAGDDAPR [P10, AGFAGDDAPR]
pIC50 [2]: 3.79 | Binding constant Kb [3]: 174 M⁻¹

GNHEAGE [peptide purified from the Alcalase 2.4L hydrolysate of peanut protein]
inhibition of thrombin activity [1]: complete inhibition

VEPVTVNPHE [anticoagulant peptide purified from Buthus martensii Karsch]
IC50, inhibition of thrombin activity ([1]; peptide purified from Buthus martensii Karsch): 12 mg/L

SWAQL [peptide purified from the Alcalase 2.4L hydrolysate of peanut protein]
inhibition of thrombin activity [1]: complete inhibition
